Each block holds one compound with its values, some of them ahead of it.
Test: solvent given as SMILES

emission maximum (in ClCCl): 460 nm
SMILES: CCN(CC)c1ccc2cc(C#N)c(=N)oc2c1

emission maximum (in ClC(Cl)Cl): 383 nm
SMILES: CC[Si](C)(C)c1cc2ccc3cccc4ccc(c1C(=O)NC(C)(C)C)c2c34

emission maximum (in ClCCl): 576 nm
SMILES: COc1ccc2c(c1)CCc1c(-c3ccccc3)c3n(c1-2)[B-](F)(F)[N+]1=C2C=NC=CN2[B-](F)(F)[N+]1=C3

emission maximum (in CS(C)=O): 440 nm
SMILES: O=C1CCCC2=C1C(c1ccccc1)c1c(c3ccccc3oc1=O)N2 (centres undefined)

emission maximum (in ClC(Cl)Cl): 440 nm
SMILES: Cc1cccc(C2=Cc3ccc4ccccc4[n+]3[B-](F)(F)O2)c1

emission maximum (in CCO): 337 nm
emission maximum (in CO): 339 nm
emission maximum (in O): 342 nm
SMILES: Cc1cc(C)nc(N)n1

SMILES: OCCSc1cccc2[n+]1[B-](F)(F)n1c(c3cccc4cccc1c43)=N2
emission maximum (in C1CCOC1): 505 nm
emission maximum (in CC#N): 502 nm
emission maximum (in CCCCCC): 497 nm
emission maximum (in Cc1ccccc1): 505 nm
emission maximum (in ClCCl): 501 nm

emission maximum (in ClC(Cl)Cl): 655 nm
SMILES: CCCCCCCCCCCCSc1cc2c3c(ccc4c5c(SCCCCCCCCCCCC)cc6c7c(ccc(c1c34)c75)C(=O)N(C1CCCCC1)C6=O)C(=O)N(C1CCCCC1)C2=O

emission maximum (in CS(C)=O): 537 nm
SMILES: CCCCN1/C(=C/C=C/C2=[N+](C)c3ccccc3C2(C)C)Oc2ccccc21

SMILES: CC1(C)c2ccccc2N(c2ccc(-c3nc4c(C#N)ccc(C#N)c4nc3-c3ccc(N4c5ccccc5C(C)(C)c5ccccc54)cc3)cc2)c2ccccc21
emission maximum (in Cc1ccccc1): 663 nm

emission maximum (in CO): 307 nm
emission maximum (in ClC(Cl)Cl): 320 nm
emission maximum (in ClCCl): 302 nm
SMILES: C(#Cc1ccccc1)c1ccccc1

SMILES: CN(C)c1ccc2nc(/C=C/c3cc4c5c(c3)CCCN5CCC4)c(=O)oc2c1
emission maximum (in C1CCCCC1): 543 nm
emission maximum (in C1COCCO1): 611 nm
emission maximum (in CC#N): 709 nm
emission maximum (in CC(C)=O): 679 nm
emission maximum (in CCCCCCC): 540 nm
emission maximum (in CCO): 705 nm
emission maximum (in CCOC(C)=O): 628 nm
emission maximum (in CN(C)C=O): 704 nm
emission maximum (in CS(C)=O): 715 nm
emission maximum (in Cc1ccccc1): 596 nm
emission maximum (in ClC(Cl)Cl): 671 nm
emission maximum (in ClCCl): 678 nm

emission maximum (in ClCCl): 556 nm
SMILES: O=[N+]([O-])c1ccc(-c2cn3ccc[n+]3[n-]2)cc1

emission maximum (in CO): 540 nm
emission maximum (in CS(C)=O): 510 nm
emission maximum (in ClC(Cl)Cl): 500 nm
emission maximum (in c1ccccc1): 470 nm
SMILES: CCC1=C(C)C(=O)n2c1cc1c(CCC(=O)O)c(C)c(C)n1c2=O

SMILES: CCC1=C(C)C2=Cc3cc(I)cn3[B-](F)(F)[N+]2=C1C
emission maximum (in C1CCCCC1): 538.5 nm
emission maximum (in CC(C)=O): 541 nm
emission maximum (in CCO): 543 nm
emission maximum (in CCOC(C)=O): 540.5 nm
emission maximum (in CO): 542.5 nm
emission maximum (in OCC(F)(F)F): 540 nm

SMILES: c1ccc(-c2nc(-c3ccc(N4c5ccccc5C(c5ccccc5)(c5ccccc5)c5ccccc54)cc3)cc(-c3ccccn3)n2)cc1
emission maximum (in Cc1ccccc1): 460 nm
emission maximum (in O=P(c1ccccc1)(c1ccccc1)c1ccccc1Oc1ccccc1P(=O)(c1ccccc1)c1ccccc1): 468 nm

emission maximum (in C1CCOC1): 421 nm
emission maximum (in CC#N): 409 nm
emission maximum (in CS(C)=O): 425 nm
emission maximum (in ClC(Cl)Cl): 400 nm
SMILES: O=c1oc2ccccc2cc1-c1ccc([N+](=O)[O-])cc1

emission maximum (in C1CCOC1): 584 nm
emission maximum (in C1COCCO1): 568 nm
emission maximum (in CN(C)C=O): 539 nm
emission maximum (in CS(C)=O): 555 nm
emission maximum (in ClCCl): 583 nm
SMILES: CN(C)c1ccc2cc(C(/C=C/c3cn(C)c4ccccc34)=C(C#N)C#N)c(=O)oc2c1

emission maximum (in CC#N): 637 nm
emission maximum (in CCO): 631 nm
emission maximum (in ClCCl): 620 nm
emission maximum (in O): 650 nm
SMILES: C=CCNc1ccc2ccc3oc4cc(=[N+](C)C)ccc-4nc3c2c1

emission maximum (in C1CCCCC1): 432 nm
emission maximum (in CC#N): 445 nm
SMILES: FC(F)(F)c1ccc(/C=C/c2nc3c(ccc4ccccc43)s2)cc1

emission maximum (in C1COCCO1): 400 nm
emission maximum (in CC#N): 451 nm
emission maximum (in CCCCCC): 346 nm
emission maximum (in CCCCCCC): 347 nm
emission maximum (in CCCO): 425 nm
emission maximum (in CCOC(C)=O): 408 nm
emission maximum (in CS(C)=O): 462 nm
emission maximum (in ClC(Cl)Cl): 404 nm
emission maximum (in ClCCl): 417 nm
SMILES: COc1ccc(C#Cc2ccc(C#N)cc2)cc1OC

emission maximum (in CCO): 455 nm
SMILES: Cn1c2cc(N3CCCCC3)c(F)cc2c(=O)c2cc(F)c(N3CCCCC3)cc21

emission maximum (in CCCCCC): 449 nm
SMILES: COC(=O)c1c(C(=O)OC)c2ccc(C)nn2c1C

SMILES: O=S(=O)(c1cccc(-n2c3ccccc3c3ccccc32)c1)c1cccc(-n2c3ccccc3c3ccccc32)c1
emission maximum (in C1CCOC1): 426 nm
emission maximum (in CCCCC(CC)n1c2ccc(-n3c4ccccc4c4ccccc43)cc2c2cc(-n3c4ccccc4c4ccccc43)ccc21): 409.97 nm
emission maximum (in Cc1ccccc1): 405 nm
emission maximum (in ClC(Cl)Cl): 422 nm
emission maximum (in c1cc(-n2c3ccccc3c3ccccc32)cc(-n2c3ccccc3c3ccccc32)c1): 419.94 nm

emission maximum (in C1CCOC1): 609 nm
SMILES: Cc1ccc(C2=C3C=CC([Se]c4ccccc4)=[N+]3[B-](F)(F)n3c([Se]c4ccccc4)ccc32)cc1

emission maximum (in C1CCOC1): 444 nm
SMILES: C1=Cc2ccccc2C(=Cc2ccc(C=C3c4ccccc4-c4ccccc43)cc2)c2ccccc21

emission maximum (in C1CCOC1): 399 nm
SMILES: c1ccc2cc3c(cc2c1)oc1c2oc4cc5ccccc5cc4c2c2ccccc2c31

emission maximum (in ClC(Cl)Cl): 410 nm
SMILES: CCCCn1c2ccccc2c2ccc3c4cc(-c5ccc6ccccc6c5)ccc4n(CCCC)c3c21

emission maximum (in CC#N): 450 nm
emission maximum (in CCCCCC): 392 nm
SMILES: Nc1ccc(/C=C/c2ccc3ccccc3c2)cc1

emission maximum (in CCO): 421 nm
SMILES: CC(C)Nc1cc2c(cc1F)c(=O)c1cc(F)c(NC(C)C)cc1n2C

emission maximum (in CC#N): 465 nm
SMILES: COc1ccc(C#Cc2ccc3ccc(=O)oc3c2)cc1

SMILES: COc1cc(OC)c(C2=C3C(C)=CC(C)=[N+]3[B-](F)(F)n3c(C)cc(C)c32)c(OC)c1
emission maximum (in C1CCOC1): 517 nm
emission maximum (in CC#N): 513 nm
emission maximum (in CC(=O)C(C)(C)C): 517 nm
emission maximum (in CC(C)=O): 515 nm
emission maximum (in CCCCCC): 520 nm
emission maximum (in CCOC(C)=O): 511 nm
emission maximum (in CO): 515 nm

SMILES: c1ccc(-c2nc3ccccc3nc2-c2ccc(-n3c4ccccc4c4ccccc43)cc2)cc1
emission maximum (in Cc1ccccc1): 434 nm

emission maximum (in ClC(Cl)Cl): 536 nm
SMILES: Cc1cc(=O)oc2cc3c(cc12)c1c2ccccc2c2ccccc2c1c1c2ccccc2c2ccccc2c31

emission maximum (in C1CCOC1): 832 nm
SMILES: C1=C2c3cc4ccccc4cc3C3=[N+]2[B-]2(Oc4ccccc43)Oc3ccccc3-c3c4cc5ccccc5cc4c1n32 (centres undefined)

emission maximum (in CC#N): 489 nm
SMILES: COc1cc(-c2nc(-c3ccccc3)c3ccccn23)ccc1O

emission maximum (in C1CCOC1): 488 nm
emission maximum (in CC#N): 499 nm
emission maximum (in ClC(Cl)Cl): 494 nm
emission maximum (in ClCCl): 496 nm
SMILES: COc1cc(/C=C/c2nc3ccccc3s2)c(OC)cc1/C=C/c1nc(C)nc(C)n1

emission maximum (in CO): 527 nm
SMILES: C(=C\c1c[nH]cn1)/c1cc[n+]2ccc(/C=C/c3c[nH]cn3)cc2c1

SMILES: CCCCOC(=O)c1cc(Cl)c2c3c(Cl)cc4c5c(cc(Cl)c(c6c(Oc7ccc(C(=O)OC)cc7)cc(C(=O)OCCCC)c1c26)c53)C(=O)N(c1c(C(C)C)cccc1C(C)C)C4=O
emission maximum (in Cc1ccccc1): 560 nm

emission maximum (in C1CCOC1): 374 nm
emission maximum (in CC#N): 366 nm
emission maximum (in CS(C)=O): 392 nm
emission maximum (in ClC(Cl)Cl): 380 nm
SMILES: COc1cccc2cc(-c3ccc([N+](=O)[O-])cc3)c(=N)oc12

emission maximum (in CS(C)=O): 575 nm
SMILES: N#CC1=C(N)n2c(=O)c3ccccc3c(=O)n2C1c1ccc([N+](=O)[O-])cc1 (centres undefined)

SMILES: CCN(CC)c1cccc2c1ccc1c(=O)oc(-c3ccc(C(F)(F)F)cc3)cc12
emission maximum (in CC(C)=O): 604 nm
emission maximum (in CCCCCC): 469 nm
emission maximum (in CCCCCCCCO): 561 nm
emission maximum (in CCCCO): 578 nm
emission maximum (in CCCO): 587 nm
emission maximum (in CCO): 599 nm
emission maximum (in CCOC(C)=O): 568 nm
emission maximum (in CN(C)C=O): 613 nm
emission maximum (in CO): 604 nm
emission maximum (in ClC(Cl)Cl): 542 nm

SMILES: Nc1ccc(-c2ccc(N)cc2)cc1
emission maximum (in C1CCOC1): 394 nm
emission maximum (in C1COCCO1): 392 nm
emission maximum (in CC#N): 393 nm
emission maximum (in CCCCCC): 373 nm
emission maximum (in CCOC(C)=O): 391 nm
emission maximum (in CN(C)C=O): 403 nm
emission maximum (in CO): 397 nm
emission maximum (in CS(C)=O): 404 nm
emission maximum (in Cc1ccccc1): 395 nm
emission maximum (in ClC(Cl)Cl): 384 nm
emission maximum (in ClCCl): 384 nm
emission maximum (in O): 401 nm

SMILES: COc1ccc(-n2c3ccccc3c3cc(/C=C/C(=C(C#N)C#N)c4ccccc4)ccc32)cc1
emission maximum (in C1CCOC1): 560 nm
emission maximum (in CC#N): 594 nm
emission maximum (in CC(C)=O): 582 nm
emission maximum (in CCOC(C)=O): 550 nm
emission maximum (in CO): 597 nm
emission maximum (in CS(C)=O): 601 nm
emission maximum (in Cc1ccccc1): 526 nm
emission maximum (in ClC(Cl)Cl): 554 nm

SMILES: CC1(C)c2ccccc2N(c2ccc3nc4c5ccc(N6c7ccccc7C(C)(C)c7ccccc76)cc5c5cc(N6c7ccccc7C(C)(C)c7ccccc76)ccc5c4nc3c2)c2ccccc21
emission maximum (in Cc1ccccc1): 605 nm
emission maximum (in c1cc(-c2cccc(-n3c4ccccc4c4ccccc43)c2)cc(-n2c3ccccc3c3ccccc32)c1): 590 nm

emission maximum (in ClC(Cl)Cl): 696 nm
SMILES: COc1ccc(N(c2ccc(OC)cc2)c2ccc(-c3ccc(C=C(C#N)C#N)cc3)cc2)cc1

emission maximum (in ClCCl): 490 nm
SMILES: CCCCOc1c(-c2ccc(N(c3ccccc3)c3ccccc3)cc2)cc2cc(-c3ccc(N(c4ccccc4)c4ccccc4)cc3)c(OCCCC)c3c4c(OCCCC)c(-c5ccc(N(c6ccccc6)c6ccccc6)cc5)cc5cc(-c6ccc(N(c7ccccc7)c7ccccc7)cc6)c(OCCCC)c(c1c23)c54

SMILES: CC(C)(C)c1ccc2c(c1)c1cc(C(C)(C)C)ccc1n2-c1cccc(C(=O)c2cccc(-n3c4ccc(C(C)(C)C)cc4c4cc(C(C)(C)C)ccc43)n2)n1
emission maximum (in C1CCOC1): 378.66 nm
emission maximum (in Cc1ccccc1): 381.64 nm
emission maximum (in ClCCl): 383.6 nm

emission maximum (in ClCCl): 473 nm
SMILES: N#CC(C#N)=Cc1ccc2c(c1)c1ccccc1n2-c1cccc2ccccc12

emission maximum (in ClCCl): 354 nm
SMILES: CC1(C)c2ccccc2-c2sc3ccccc3c21

emission maximum (in C1CCCCC1): 295.77 nm
SMILES: Cc1ccc(C)c(C)c1

emission maximum (in ClCCl): 519 nm
SMILES: O=C1c2ccccc2-c2nc3ccccc3n21

emission maximum (in ClCCl): 392 nm
SMILES: C(#Cc1ccc2c(c1)c1cc(C#Cc3ccccc3)ccc1n2-c1cc2ccccc2c2ccccc12)c1ccccc1

emission maximum (in CC#N): 426 nm
emission maximum (in ClCCCl): 425 nm
SMILES: Cc1ccc2nc3c(=O)[nH]c(=O)[nH]c3nc2c1
